# Source: US20020156236A1, “Binding sites for phosphotyrosine binding domains” (priority 1995, published 2002)
# Where a SMILES comes first, the peptide text is derived from it.
# Biological target: T1, PTB domain/c-erbB2 binding (GST-PTB domain of SHC; c-erbB2 from SKBR3 lysate) (Homo sapiens, UniProt P29353)
# T1 construct: GST-PTB domain fusion proteins were expressed from recombinant baculovirus in sf9 cells; made in house; host or cells: Sf9 cells (recombinant baculovirus) for GST-PTB; c-erbB2 endogenous in SKBR3 cell lysate
# T1 sequence (P29353 156-341): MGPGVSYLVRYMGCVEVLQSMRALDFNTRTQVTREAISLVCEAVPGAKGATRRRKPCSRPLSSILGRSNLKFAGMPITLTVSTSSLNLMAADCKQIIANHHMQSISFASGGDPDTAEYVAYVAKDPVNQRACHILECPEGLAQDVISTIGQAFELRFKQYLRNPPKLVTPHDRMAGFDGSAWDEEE
# Experiment: biochemical
# Settings: Inhibition (relative inhibition scale of IC50)
row,Structure (SMILES),IC50 [µM]
1,"CC(C)C[C@H](NC(=O)[C@H](CC(N)=O)NC(=O)[C@H](CC(=O)O)NC(=O)[C@H](C)NC(=O)[C@H](C)NC(=O)[C@@H]1CCCN1C(=O)[C@H](CO)NC(=O)[C@H](Cc1ccccc1)NC(=O)[C@H](C)NC(=O)[C@@H]1CCCN1)C(=O)N[C@@H](Cc1ccc(O)cc1)C(=O)N[C@@H](Cc1ccc(OP(=O)(O)O)cc1)C(=O)N[C@@H](Cc1c[nH]c2ccccc12)C(=O)N[C@@H](CC(=O)O)C(=O)N[C@@H](CCC(N)=O)C(=O)N[C@@H](CC(N)=O)C(=O)N[C@@H](CO)C(=O)N[C@@H](CO)C(=O)N[C@@H](CCC(=O)O)C(=O)N[C@@H](CCC(N)=O)C(=O)NCC(=O)O [PAFSPAADNLY (pY) WDQNSSEQG, PAFSPAADNLY(pY)WDQNSSEQG] (HELM PEPTIDE1{P.A.F.S.P.A.A.D.N.L.Y.[O=C([C@H](Cc1ccc(OP(=O)(O)O)cc1)N[*:1])[*:2]].W.D.Q.N.S.S.E.Q.G}$$$$V2.0)",0.5 to 5
2,"CC(C)C[C@H](NC(=O)[C@H](CC(N)=O)NC(=O)[C@H](C)NC(=O)[C@H](Cc1ccccc1)NC(=O)[C@H](C)NC(=O)[C@@H]1CCCN1C(=O)[C@H](CO)NC(=O)[C@H](Cc1ccccc1)NC(=O)[C@H](C)NC(=O)[C@@H]1CCCN1)C(=O)N[C@@H](Cc1ccc(O)cc1)C(=O)N[C@@H](Cc1ccc(OP(=O)(O)O)cc1)C(=O)N[C@@H](Cc1c[nH]c2ccccc12)C(=O)N[C@@H](CC(=O)O)C(=O)N[C@@H](CCC(N)=O)C(=O)N[C@@H](CC(N)=O)C(=O)N[C@@H](CO)C(=O)N[C@@H](CO)C(=O)N[C@@H](CCC(=O)O)C(=O)N[C@@H](CCC(N)=O)C(=O)NCC(=O)O [PAFSPAFANLY (pY) WDQNSSEQG, PAFSPAFANLY(pY)WDQNSSEQG] (HELM PEPTIDE1{P.A.F.S.P.A.F.A.N.L.Y.[O=C([C@H](Cc1ccc(OP(=O)(O)O)cc1)N[*:1])[*:2]].W.D.Q.N.S.S.E.Q.G}$$$$V2.0)",5 to 50
3,CC(C)C[C@H](NC(=O)[C@H](C)NC(=O)[C@H](CC(=O)O)NC(=O)[C@H](Cc1ccccc1)NC(=O)[C@H](C)NC(=O)[C@@H]1CCCN1C(=O)[C@H](CO)NC(=O)[C@H](Cc1ccccc1)NC(=O)[C@H](C)NC(=O)[C@@H]1CCCN1)C(=O)N[C@@H](Cc1ccc(O)cc1)C(=O)N[C@@H](Cc1ccc(OP(=O)(O)O)cc1)C(=O)N[C@@H](Cc1c[nH]c2ccccc12)C(=O)N[C@@H](CC(=O)O)C(=O)N[C@@H](CCC(N)=O)C(=O)N[C@@H](CC(N)=O)C(=O)N[C@@H](CO)C(=O)N[C@@H](CO)C(=O)N[C@@H](CCC(=O)O)C(=O)N[C@@H](CCC(N)=O)C(=O)NCC(=O)O [PAFSPAFDALY (pY) WDQNSSEQG] (HELM PEPTIDE1{P.A.F.S.P.A.F.D.A.L.Y.[O=C([C@H](Cc1ccc(OP(=O)(O)O)cc1)N[*:1])[*:2]].W.D.Q.N.S.S.E.Q.G}$$$$V2.0),> 50
4,CC(C)C[C@H](NC(=O)[C@H](CC(=O)O)NC(=O)[C@H](CC(=O)O)NC(=O)[C@H](Cc1ccccc1)NC(=O)[C@H](C)NC(=O)[C@@H]1CCCN1C(=O)[C@H](CO)NC(=O)[C@H](Cc1ccccc1)NC(=O)[C@H](C)NC(=O)[C@@H]1CCCN1)C(=O)N[C@@H](Cc1ccc(O)cc1)C(=O)N[C@@H](Cc1ccc(OP(=O)(O)O)cc1)C(=O)N[C@@H](Cc1c[nH]c2ccccc12)C(=O)N[C@@H](CC(=O)O)C(=O)N[C@@H](CCC(N)=O)C(=O)N[C@@H](CC(N)=O)C(=O)N[C@@H](CO)C(=O)N[C@@H](CO)C(=O)N[C@@H](CCC(=O)O)C(=O)N[C@@H](CCC(N)=O)C(=O)NCC(=O)O [PAFSPAFDDLY (pY) WDQNSSEQG] (HELM PEPTIDE1{P.A.F.S.P.A.F.D.D.L.Y.[O=C([C@H](Cc1ccc(OP(=O)(O)O)cc1)N[*:1])[*:2]].W.D.Q.N.S.S.E.Q.G}$$$$V2.0),> 50
5,"C[C@H](NC(=O)[C@@H]1CCCN1)C(=O)N[C@@H](Cc1ccccc1)C(=O)N[C@@H](CO)C(=O)N1CCC[C@H]1C(=O)N[C@@H](C)C(=O)N[C@@H](Cc1ccccc1)C(=O)N[C@@H](CC(=O)O)C(=O)N[C@@H](CC(N)=O)C(=O)N[C@@H](C)C(=O)N[C@@H](Cc1ccc(O)cc1)C(=O)N[C@@H](Cc1ccc(OP(=O)(O)O)cc1)C(=O)N[C@@H](Cc1c[nH]c2ccccc12)C(=O)N[C@@H](CC(=O)O)C(=O)N[C@@H](CCC(N)=O)C(=O)N[C@@H](CC(N)=O)C(=O)N[C@@H](CO)C(=O)N[C@@H](CO)C(=O)N[C@@H](CCC(=O)O)C(=O)N[C@@H](CCC(N)=O)C(=O)NCC(=O)O [PAFSPAFDNAY (pY) WDQNSSEQG, PAFSPAFDNAY(pY)WDQNSSEQG] (HELM PEPTIDE1{P.A.F.S.P.A.F.D.N.A.Y.[O=C([C@H](Cc1ccc(OP(=O)(O)O)cc1)N[*:1])[*:2]].W.D.Q.N.S.S.E.Q.G}$$$$V2.0)",0.5 to 5
6,CC(C)C[C@H](NC(=O)[C@H](CC(N)=O)NC(=O)[C@H](CC(=O)O)NC(=O)[C@H](Cc1ccccc1)NC(=O)[C@H](C)NC(=O)[C@@H]1CCCN1C(=O)[C@H](CO)NC(=O)[C@H](Cc1ccccc1)NC(=O)[C@H](C)NC(=O)[C@@H]1CCCN1)C(=O)N[C@@H](C)C(=O)N[C@@H](Cc1ccc(O)cc1)C(=O)N[C@@H](Cc1ccc(OP(=O)(O)O)cc1)C(=O)N[C@@H](Cc1c[nH]c2ccccc12)C(=O)N[C@@H](CC(=O)O)C(=O)N[C@@H](CCC(N)=O)C(=O)N[C@@H](CC(N)=O)C(=O)N[C@@H](CO)C(=O)N[C@@H](CO)C(=O)N[C@@H](CCC(=O)O)C(=O)N[C@@H](CCC(N)=O)C(=O)NCC(=O)O [PAFSPAFDNLAY (pY) WDQNSSEQG] (HELM PEPTIDE1{P.A.F.S.P.A.F.D.N.L.A.Y.[O=C([C@H](Cc1ccc(OP(=O)(O)O)cc1)N[*:1])[*:2]].W.D.Q.N.S.S.E.Q.G}$$$$V2.0),0.5 to 5
7,CC(C)C[C@H](NC(=O)[C@H](CC(N)=O)NC(=O)[C@H](CC(=O)O)NC(=O)[C@H](Cc1ccccc1)NC(=O)[C@H](C)NC(=O)[C@@H]1CCCN1C(=O)[C@H](CO)NC(=O)[C@H](Cc1ccccc1)NC(=O)[C@H](C)NC(=O)[C@@H]1CCCN1)C(=O)N[C@@H](Cc1ccccc1)C(=O)N[C@@H](Cc1ccc(O)cc1)C(=O)N[C@@H](Cc1ccc(OP(=O)(O)O)cc1)C(=O)N[C@@H](Cc1c[nH]c2ccccc12)C(=O)N[C@@H](CC(=O)O)C(=O)N[C@@H](CCC(N)=O)C(=O)N[C@@H](CC(N)=O)C(=O)N[C@@H](CO)C(=O)N[C@@H](CO)C(=O)N[C@@H](CCC(=O)O)C(=O)N[C@@H](CCC(N)=O)C(=O)NCC(=O)O [PAFSPAFDNLFY (pY) WDQNSSEQG] (HELM PEPTIDE1{P.A.F.S.P.A.F.D.N.L.F.Y.[O=C([C@H](Cc1ccc(OP(=O)(O)O)cc1)N[*:1])[*:2]].W.D.Q.N.S.S.E.Q.G}$$$$V2.0),0.5 to 5
8,CC(C)C[C@H](NC(=O)[C@H](CC(N)=O)NC(=O)[C@H](CC(=O)O)NC(=O)[C@H](Cc1ccccc1)NC(=O)[C@H](C)NC(=O)[C@@H]1CCCN1C(=O)[C@H](CO)NC(=O)[C@H](Cc1ccccc1)NC(=O)[C@H](C)NC(=O)[C@@H]1CCCN1)C(=O)N[C@@H](Cc1ccc(O)cc1)C(=O)N[C@@H](Cc1ccc(OP(=O)(O)O)cc1)C(=O)N[C@@H](C)C(=O)N[C@@H](CC(=O)O)C(=O)N[C@@H](CCC(N)=O)C(=O)N[C@@H](CC(N)=O)C(=O)N[C@@H](CO)C(=O)N[C@@H](CO)C(=O)N[C@@H](CCC(=O)O)C(=O)N[C@@H](CCC(N)=O)C(=O)NCC(=O)O [PAFSPAFDNLY (pY) ADQNSSEQG] (HELM PEPTIDE1{P.A.F.S.P.A.F.D.N.L.Y.[O=C([C@H](Cc1ccc(OP(=O)(O)O)cc1)N[*:1])[*:2]].A.D.Q.N.S.S.E.Q.G}$$$$V2.0),> 50
9,"CC(C)C[C@H](NC(=O)[C@H](CC(N)=O)NC(=O)[C@H](CC(=O)O)NC(=O)[C@H](Cc1ccccc1)NC(=O)[C@H](C)NC(=O)[C@@H]1CCCN1C(=O)[C@H](CO)NC(=O)[C@H](Cc1ccccc1)NC(=O)[C@H](C)NC(=O)[C@@H]1CCCN1)C(=O)N[C@@H](Cc1ccc(O)cc1)C(=O)N[C@@H](Cc1ccc(OP(=O)(O)O)cc1)C(=O)N[C@@H](Cc1ccccc1)C(=O)N[C@@H](CC(=O)O)C(=O)N[C@@H](CCC(N)=O)C(=O)N[C@@H](CC(N)=O)C(=O)N[C@@H](CO)C(=O)N[C@@H](CO)C(=O)N[C@@H](CCC(=O)O)C(=O)N[C@@H](CCC(N)=O)C(=O)NCC(=O)O [PAFSPAFDNLY (pY) FDQNSSEQG, PAFSPAFDNLY(pY)FDQNSSEQG] (HELM PEPTIDE1{P.A.F.S.P.A.F.D.N.L.Y.[O=C([C@H](Cc1ccc(OP(=O)(O)O)cc1)N[*:1])[*:2]].F.D.Q.N.S.S.E.Q.G}$$$$V2.0)",0.5 to 5
10,"CC(C)C[C@H](NC(=O)[C@H](CC(N)=O)NC(=O)[C@H](CC(=O)O)NC(=O)[C@H](Cc1ccccc1)NC(=O)[C@H](C)NC(=O)[C@@H]1CCCN1C(=O)[C@H](CO)NC(=O)[C@H](Cc1ccccc1)NC(=O)[C@H](C)NC(=O)[C@@H]1CCCN1)C(=O)N[C@@H](Cc1ccc(O)cc1)C(=O)N[C@@H](Cc1ccc(OP(=O)(O)O)cc1)C(=O)N[C@@H](Cc1c[nH]c2ccccc12)C(=O)N[C@@H](C)C(=O)N[C@@H](CCC(N)=O)C(=O)N[C@@H](CC(N)=O)C(=O)N[C@@H](CO)C(=O)N[C@@H](CO)C(=O)N[C@@H](CCC(=O)O)C(=O)N[C@@H](CCC(N)=O)C(=O)NCC(=O)O [PAFSPAFDNLY (pY) WAQNSSEQG, PAFSPAFDNLY(pY)WAQNSSEQG] (HELM PEPTIDE1{P.A.F.S.P.A.F.D.N.L.Y.[O=C([C@H](Cc1ccc(OP(=O)(O)O)cc1)N[*:1])[*:2]].W.A.Q.N.S.S.E.Q.G}$$$$V2.0)",0.05 to 0.5
11,"CC(C)C[C@H](NC(=O)[C@H](CC(N)=O)NC(=O)[C@H](CC(=O)O)NC(=O)[C@H](Cc1ccccc1)NC(=O)[C@H](C)NC(=O)[C@@H]1CCCN1C(=O)[C@H](CO)NC(=O)[C@H](Cc1ccccc1)NC(=O)[C@H](C)NC(=O)[C@@H]1CCCN1)C(=O)N[C@@H](Cc1ccc(O)cc1)C(=O)N[C@@H](Cc1ccc(OP(=O)(O)O)cc1)C(=O)N[C@@H](Cc1c[nH]c2ccccc12)C(=O)N[C@@H](CC(=O)O)C(=O)N[C@@H](C)C(=O)N[C@@H](CC(N)=O)C(=O)N[C@@H](CO)C(=O)N[C@@H](CO)C(=O)N[C@@H](CCC(=O)O)C(=O)N[C@@H](CCC(N)=O)C(=O)NCC(=O)O [PAFSPAFDNLY (pY) WDANSSEQG, PAFSPAFDNLY(pY)WDANSSEQG] (HELM PEPTIDE1{P.A.F.S.P.A.F.D.N.L.Y.[O=C([C@H](Cc1ccc(OP(=O)(O)O)cc1)N[*:1])[*:2]].W.D.A.N.S.S.E.Q.G}$$$$V2.0)",0.5 to 5
